Assay results: patent US20230406860A1, “HETEROCYCLIC SPIRO COMPOUNDS AND METHODS OF USE” (AMGEN INC., priority 2020, published 2023)
Like-named read-outs stand apart in the source and are kept apart here.

Tests used:
[1] = test system: A549 (human lung carcinoma) cells; test: Cell viability assay (CellTiter-Glo), A549; type: cell-based; details: 72 h
Experimental: (§1) MIA PaCa-2 (human pancreatic carcinoma; ATCC CRL-1420) or A549 (human lung carcinoma; ATCC CCL-185) cells were cultured in RPMI 1640 medium containing 10% fetal bovine serum and 1× penicillin/streptomycin/L-glutamine. Cells were seeded in 384-well plates at a density of 1.67E+04 cells/mL and incubated at 37° C., 5% CO2, overnight. Serially-diluted compound or DMSO was added to the cells, and plates were incubated at 37° C., 5% CO2 for 72 h. Cell viability was measured using a CellTiter-Glo® Luminescent Cell Viability Assay kit (Promega) according to the manufacturer's protocol. The luminescence signal of treated samples was normalized to DMSO control, and data were analyzed using a 4-parameter logistic model to calculate IC50 values.

[2] = test system: MIA PaCa-2 (human pancreatic carcinoma) cells; test: Cell viability assay (CellTiter-Glo), MIA PaCa-2; type: cell-based; details: 72 h
Experimental: as §1

[3] = biological target: GDP-bound KRAS protein (aa 1-169), containing both G12C and C118A amino acid substitutions (Homo sapiens, UniProt P01116, C118A/G12C); test: Coupled nucleotide exchange assay (SOS-mediated, AlphaScreen); type: biochemical
Sequence of GDP-bound KRAS protein (aa 1-169), containing both G12C and C118A amino acid substitutions (P01116 1-169 isoform P01116-2 G12C/C118A): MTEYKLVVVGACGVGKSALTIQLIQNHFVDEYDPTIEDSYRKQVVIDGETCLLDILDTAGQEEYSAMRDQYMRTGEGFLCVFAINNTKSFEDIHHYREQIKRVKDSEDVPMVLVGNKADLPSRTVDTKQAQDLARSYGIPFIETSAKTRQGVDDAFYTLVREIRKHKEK
Experimental: Coupled Nucleotide Exchange Assay:
For all subsequent steps, DTT was added to the reaction buffer at a final concentration of 1 mM. […] The assay plates were then read on a plate reader measuring luminescence signal. Signal intensity of compound-containing wells were normalized to DMSO control, and data were analyzed using a 4-parameter logistic model to calculate IC50 values.

[4] = 2 h compound pre-incubation, read-out: Avg 2 h Coupled exchange IC50
[5] = 20 h compound pre-incubation (values marked * in Table 6), read-out: Avg 20 h Coupled exchange IC50

Structure (SMILES)	IC50 [1] [nM]	IC50 [2] [nM]	IC50 [3, 4] [nM]	IC50 [3, 5] [nM]
C=CC(=O)N1CC2(CCN(c3nc4c(c(N[C@H](Cc5nccs5)CC(C)C)n3)CCC(C)(C)C4)C2)C1 [Example 1-43, 1-(6-(7,7-dimethyl-4-(((2S)-4-methyl-1-(1,3-thiazol-2-yl)-2-pentanyl)amino)-5,6,7,8-tetrahydro-2-quinazolinyl)-2,6-diazaspiro[3.4]octan-2-yl)-2-propen-1-one]	13500	205	121	
C=CC(=O)N1CC2(CCN(c3nc(N[C@H](CC(=O)NC)CC(C)C)c4ncn(C)c4n3)C2)C1 [Example 1-17, (3S)-N,5-dimethyl-3-((9-methyl-2-(2-(2-propenoyl)-2,6-diazaspiro[3.4]octan-6-yl)-9H-purin-6-yl)amino)hexanamide]	> 25000	2460	8790	
C=CC(=O)N1CC2(C1)CN(c1nc(N[C@H](CC(=O)NC)CC(C)C)c3ccccc3n1)CC2F (stereo partly drawn) [Example 1-27, (3S)-3-((2-(8-fluoro-2-(2-propenoyl)-2,6-diazaspiro[3.4]octan-6-yl)-4-quinazolinyl)amino)-N,5-dimethylhexanamide]	> 5000	> 5000	3490	
C=CC(=O)N1CC2(CCN(c3nc4c(c(N[C@H](Cc5nnc(C)o5)CC(C)C)n3)CCCC4)C2)C1 [Example 1-22, 1-(6-(4-(((2S)-4-methyl-1-(5-methyl-1,3,4-oxadiazol-2-yl)-2-pentanyl)amino)-5,6,7,8-tetrahydro-2-quinazolinyl)-2,6-diazaspiro[3.4]octan-2-yl)-2-propen-1-one]	> 25000	279	830	
C=CC(=O)N1CC2(C[C@H](CO)N(c3nc4c(c(N[C@H](CC(=O)NC)CC(C)C)n3)CCCC4)C2)C1 (single isomer, unassigned) [Example 1-24-1]	> 25000	5990	4580	
C=CC(=O)N1CC2(CCN(c3nc4c(c(N[C@H](CC(=O)NC)c5cccc(C#N)c5)n3)CCCC4)C2)C1 (single isomer, unassigned) [Example 1-21-2]	> 25000	14000	129950	
C=CC(=O)N1CC2(CCN(c3nc(N[C@H](CC(=O)NC)CC(C)C)c4ccc(C#N)cc4n3)C2)C1 [Example 1-26, (3S)-3-((7-cyano-2-(2-(2-propenoyl)-2,6-diazaspiro[3.4]octan-6-yl)-4-quinazolinyl)amino)-N,5-dimethylhexanamide]	> 25000	185	180	
C=CC(=O)N1CC2(C1)CN(c1nc3c(c(N[C@H](CC(=O)NC)CC(C)C)n1)CCC(C)C3)CC2F (stereo partly drawn) [Example 1-28, (3S)-3-((2-(8-fluoro-2-(2-propenoyl)-2,6-diazaspiro[3.4]octan-6-yl)-7-methyl-5,6,7,8-tetrahydro-4-quinazolinyl)amino)-N,5-dimethylhexanamide]	> 5000	189	196	
C=CC(=O)N1CC2(CCN(c3nc(N[C@H](CC(=O)NC)CC(C)C)c4ncc(C)cc4n3)C2)C1 [Example 1-34, (3S)-N,5-dimethyl-3-((7-methyl-2-(2-(2-propenoyl)-2,6-diazaspiro[3.4]octan-6-yl)pyrido[3,2-d]pyrimidin-4-yl)amino)hexanamide]	> 25000	217	372	
C=CC(=O)N1CC2(CCN(c3nc4c(c(N[C@H](CC(=O)NC)CC(C)C)n3)OCCC4)C2)C1 [Example 1-31, (3S)-N,5-dimethyl-3-((2-(2-(2-propenoyl)-2,6-diazaspiro[3.4]octan-6-yl)-7,8-dihydro-6H-pyrano[3,2-d]pyrimidin-4-yl)amino)hexanamide]	> 25000	261	428	
C=CC(=O)N1CC2(CCN(c3nc4c(c(N[C@H](Cc5nnc(C)o5)CC(C)C)n3)CCC(C)(C)C4)C2)C1 [Example 1-52, 1-(6-(7,7-dimethyl-4-(((2S)-4-methyl-1-(5-methyl-1,3,4-oxadiazol-2-yl)-2-pentanyl)amino)-5,6,7,8-tetrahydro-2-quinazolinyl)-2,6-diazaspiro[3.4]octan-2-yl)-2-propen-1-one]	> 5000	1410	39	
C=CC(=O)N1CC2(CCN(c3nc4c(c(N[C@H](Cc5nc(C)no5)CC(C)C)n3)CCC(C)(C)C4)C2)C1 [Example 1-39, 1-(6-(7,7-dimethyl-4-(((2S)-4-methyl-1-(3-methyl-1,2,4-oxadiazol-5-yl)-2-pentanyl)amino)-5,6,7,8-tetrahydro-2-quinazolinyl)-2,6-diazaspiro[3.4]octan-2-yl)-2-propen-1-one]	> 25000	790	685	
C=CC(=O)N1CC2(CCN(c3nc(N[C@H](CC(=O)NC)CC(C)C)c4cc(C)ccc4n3)C2)C1 [Example 1-41, (3S)-N,5-dimethyl-3-((6-methyl-2-(2-(2-propenoyl)-2,6-diazaspiro[3.4]octan-6-yl)-4-quinazolinyl)amino)hexanamide]	> 25000	1230	779	
C=CC(=O)N1CC2(CCN(c3nc(N[C@H](CC(=O)NC)CC(C)C)c4ncc(C5CC5)cc4n3)C2)C1 [Example 1-38, (3S)-3-((7-cyclopropyl-2-(2-(2-propenoyl)-2,6-diazaspiro[3.4]octan-6-yl)pyrido[3,2-d]pyrimidin-4-yl)amino)-N,5-dimethylhexanamide]	> 5000	959	60	
C=C(C(=O)N1CC2(CCN(c3nc(N[C@H](CC(=O)NC)CC(C)C)c4ccc(C)cc4n3)C2)C1)C(F)(F)F [Example 1-58, (3S)-N,5-dimethyl-3-((7-methyl-2-(2-(2-(trifluoromethyl)-2-propenoyl)-2,6-diazaspiro[3.4]octan-6-yl)-4-quinazolinyl)amino)hexanamide]	13500	1840	403	
C=CC(=O)N1CC2(CCN(c3nc(N[C@H](CC(=O)NC)CC(C)C)c4ccn(C)c4n3)C2)C1 [Example 1-16, (3S)-N,5-dimethyl-3-((7-methyl-2-(2-(2-propenoyl)-2,6-diazaspiro[3.4]octan-6-yl)-7H-pyrrolo[2,3-d]pyrimidin-4-yl)amino)hexanamide]	> 25000	4600		918
C=CC(=O)N1CC2(CCN(c3nc4c(c(N[C@H](Cc5ccon5)CC(C)C)n3)CCC(C)(C)C4)C2)C1 [Example 1-48, 1-(6-(7,7-dimethyl-4-(((2S)-4-methyl-1-(1,2-oxazol-3-yl)-2-pentanyl)amino)-5,6,7,8-tetrahydro-2-quinazolinyl)-2,6-diazaspiro[3.4]octan-2-yl)-2-propen-1-one]	15800	49	53	
C=CC(=O)N1CC2(CCN(c3nc(N[C@H](CC(=O)NC)CC(C)C)c4occc4n3)C2)C1 [Example 1-7, (3S)-N,5-dimethyl-3-((2-(2-(2-propenoyl)-2,6-diazaspiro[3.4]octan-6-yl)furo[3,2-d]pyrimidin-4-yl)amino)hexanamide]	> 5000	58200		494
C=CC(=O)N1CC2(CCN(c3nc4c(c(N[C@H](CC(=O)NC)CC(C)C)n3)CCC(C(F)(F)F)C4)C2)C1 (stereo partly drawn) [Example 1-32, (3S)-N,5-dimethyl-3-((2-(2-(2-propenoyl)-2,6-diazaspiro[3.4]octan-6-yl)-7-(trifluoromethyl)-5,6,7,8-tetrahydro-4-quinazolinyl)amino)hexanamide]	> 25000	24	57	
C=CC(=O)N1CC2(CCN(c3nc(N[C@H](CC(=O)NC)CC(C)C)c4nn(C)cc4n3)C2)C1 [Example 1-10, (3S)-N,5-dimethyl-3-((2-methyl-5-(2-(2-propenoyl)-2,6-diazaspiro[3.4]octan-6-yl)-2H-pyrazolo[4,3-d]pyrimidin-7-yl)amino)hexanamide]	> 25000	3630	916	
C=CC(=O)N1CC2(CCN(c3nc(N[C@H](CC(=O)NC)CC(C)C)c4c(ncn4C)n3)C2)C1 [Example 1-14, (3S)-N,5-dimethyl-3-((7-methyl-2-(2-(2-propenoyl)-2,6-diazaspiro[3.4]octan-6-yl)-7H-purin-6-yl)amino)hexanamide]	> 25000	> 25000	196000	
C=CC(=O)N1CC2(CCN(c3nc4c(c(N[C@H](CC(=O)NC)CC(C)C)n3)CN(C(C)=O)C4)C2)C1 [Example 1-9, (3S)-3-((6-acetyl-2-(2-(2-propenoyl)-2,6-diazaspiro[3.4]octan-6-yl)-6,7-dihydro-5H-pyrrolo[3,4-d]pyrimidin-4-yl)amino)-N,5-dimethylhexanamide]	> 5000	> 5000		472
C=CC(=O)N1CC2(CCN(c3cc4ccccc4c(N[C@H](CC(=O)NC)CC(C)C)n3)C2)C1 [Example 1-6, (3S)-N,5-dimethyl-3-((3-(2-(2-propenoyl)-2,6-diazaspiro[3.4]octan-6-yl)-1-isoquinolinyl)amino)hexanamide]	> 25000	8210		424
